According to patent US6559101B2, “N- (5, 7-dimethoxy [1, 2, 4] triazolo [1, 5-a] pyrimidin-2-yl) arylsulfonamide compounds and their use as herbicides” (Dow AgroSciences LLC, priority 2000, dated 2003):

Experiments:
Type in all cases: in vivo
[1] = test system: Spring wheat (Triticum aestivum); test: Postemergence herbicidal activity with safener, crop injury; conditions: 25 g/ha postemergence; 3 weeks after application; 0 no injury, 100 complete kill
Excerpt: (§1) Pre-formulated test materials utilized were as follows: Compound 15 as a 30 g ai/L emulsified concentrate (3% Compound 15, 3% Agrimer AL-10 (copolymer of 1-ethenyl-2-pyrolidinone and 1-butene), 94% N-methyl pyrrolidone w/w) and cloquintocet-mexyl (CQC) as a 120 g ai/L emulsified concentrate (12% cloquintocet-mexyl, 2.5% Toximul D, 2.5% Toximul H, [blends of calcium dodecylbenzenesulfonate plus castor oil ehtoxylates, nonylphenol ethoxylates and EO-PO block copolymers] 83% aromatic 200 w/w). Diluted stock solutions of formulated materials were made in distilled water. Final spray solutions were made by adding specified aliquots of diluted stock materials to a solution containing distilled water and X-77 surfactant at 0.25% v/v. The solutions were applied using a mechanized track-sprayer calibrated to deliver 187 1/ha carrier volume with a nozzle (flat fan) pressure of 276 kilopascals.
(§2) Assessment of weed control and crop injury was taken a 3 weeks after application. Plant injury was visually assessed on a scale of 0 to 100% with 0 equal to no injury and 100 equal to complete kill.

[2] = test system: Rox orange sorghum (Sorghum bicolor); test: Postemergence herbicidal activity; conditions: 7.8 ppm; scored after 2 weeks; 0 no injury, 100 complete kill
Procedure, shortened: (§3)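 Percent injury, rated visually two weeks after application against untreated plants, reflects a thorough-coverage spray given at the first to second true leaf stage. Application rates in ppm approximate g/ha (1 ppm ≈ 1 g/ha).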

[3] = test system: wild buckwheat (Polygonum convolvulus); test: Postemergence herbicidal activity; conditions: 7.8 ppm; scored after 2 weeks; 0 no injury, 100 complete kill
Procedure, shortened: as §3

[4] = test system: lambsquarters (Chenopodium album); test: Postemergence herbicidal activity; conditions: 7.8 ppm; scored after 2 weeks; 0 no injury, 100 complete kill
Procedure, shortened: as §3

[5] = test system: chickweed (Stellaria media); test: Postemergence herbicidal activity; conditions: 7.8 ppm; scored after 2 weeks; 0 no injury, 100 complete kill
Procedure, shortened: as §3

[6] = test system: velvetleaf (Abutilion theophrasti); test: Postemergence herbicidal activity; conditions: 7.8 ppm; scored after 2 weeks; 0 no injury, 100 complete kill
Procedure, shortened: as §3

[7] = test system: blackgrass (Alopecurus myosuroides); test: Postemergence herbicidal activity; conditions: 7.8 ppm; scored after 2 weeks; 0 no injury, 100 complete kill
Procedure, shortened: as §3

wild oats (Avena fatua) [8] = test: Postemergence herbicidal activity; conditions: 7.8 ppm; scored after 2 weeks; 0 no injury, 100 complete kill
Procedure, shortened: as §3

[9] = test system: giant foxtail (Setaria faberi); test: Postemergence herbicidal activity; conditions: 7.8 ppm; scored after 2 weeks; 0 no injury, 100 complete kill
Procedure, shortened: as §3

[10] = test system: pigweed (Amaranthus retroflexus); test: Postemergence herbicidal activity; conditions: 7.8 ppm; scored after 2 weeks; 0 no injury, 100 complete kill
Procedure, shortened: as §3

[11] = test system: cocklebur (Xanthium strumarium); test: Postemergence herbicidal activity; conditions: 7.8 ppm; scored after 2 weeks; 0 no injury, 100 complete kill
Procedure, shortened: as §3

viola (Viola tricolor) = test: Postemergence herbicidal activity; conditions: 7.8 ppm; scored after 2 weeks; 0 no injury, 100 complete kill
Procedure, shortened: as §3

[12] = test system: Rox orange sorghum (Sorghum bicolor); test: Preemergence herbicidal activity; conditions: 17.5 g/Ha; scored after 3 weeks; 0 no injury, 100 complete kill or no germination
Procedure, shortened: (§4)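 Application was to bare soil of seeded pots at rates no higher than 4.48 kg/ha. Three weeks on, plant condition was compared visually with untreated pots and expressed as percent injury.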

[13] = test system: lambsquarters (Chenopodium album); test: Preemergence herbicidal activity; conditions: 17.5 g/Ha; scored after 3 weeks; 0 no injury, 100 complete kill or no germination
Procedure, shortened: as §4

[14] = test system: crabgrass (Digitaria sanguinalis); test: Preemergence herbicidal activity; conditions: 17.5 g/Ha; scored after 3 weeks; 0 no injury, 100 complete kill or no germination
Procedure, shortened: as §4

[15] = test system: morningglory (Ipomoea hederacea); test: Preemergence herbicidal activity; conditions: 17.5 g/Ha; scored after 3 weeks; 0 no injury, 100 complete kill or no germination
Procedure, shortened: as §4

[16] = test system: velvetleaf (Abutilion theophrasti); test: Preemergence herbicidal activity; conditions: 17.5 g/Ha; scored after 3 weeks; 0 no injury, 100 complete kill or no germination
Procedure, shortened: as §4

[17] = test system: wild poinsettia (Euphorbia heterophylla); test: Preemergence herbicidal activity; conditions: 17.5 g/Ha; scored after 3 weeks; 0 no injury, 100 complete kill or no germination
Procedure, shortened: as §4

[18] = test system: blackgrass (Alopecurus myosuroides); test: Preemergence herbicidal activity; conditions: 17.5 g/Ha; scored after 3 weeks; 0 no injury, 100 complete kill or no germination
Procedure, shortened: as §4

wild oats (Avena fatua) [19] = test: Preemergence herbicidal activity; conditions: 17.5 g/Ha; scored after 3 weeks; 0 no injury, 100 complete kill or no germination
Procedure, shortened: as §4

[20] = test system: giant foxtail (Setaria faberi); test: Preemergence herbicidal activity; conditions: 17.5 g/Ha; scored after 3 weeks; 0 no injury, 100 complete kill or no germination
Procedure, shortened: as §4

[21] = test system: pigweed (Amaranthus retroflexus); test: Preemergence herbicidal activity; conditions: 17.5 g/Ha; scored after 3 weeks; 0 no injury, 100 complete kill or no germination
Procedure, shortened: as §4

[22] = test system: cocklebur (Xanthium strumarium); test: Preemergence herbicidal activity; conditions: 17.5 g/Ha; scored after 3 weeks; 0 no injury, 100 complete kill or no germination
Procedure, shortened: as §4

[23] = test system: barnyardgrass (Echinochloa crus-galli); test: Preemergence herbicidal activity; conditions: 17.5 g/Ha; scored after 3 weeks; 0 no injury, 100 complete kill or no germination
Procedure, shortened: as §4

[24] = test system: Green foxtail (Setaria viridis); test: Postemergence herbicidal activity with safener; conditions: 25 g/ha postemergence; 0 no injury, 100 complete kill
Excerpt: as §1, §2

[25] = test system: Italian ryegrass (Lolium multiflorum); test: Postemergence herbicidal activity with safener; conditions: 25 g/ha postemergence; 0 no injury, 100 complete kill
Excerpt: as §1, §2

[26] = test system: Windgrass (Apera spica-venta); test: Postemergence herbicidal activity with safener; conditions: 25 g/ha postemergence; 0 no injury, 100 complete kill
Excerpt: as §1, §2

[27] = test system: blackgrass (Alopecurus myosuroides); test: Postemergence herbicidal activity with safener; conditions: 25 g/ha postemergence; 0 no injury, 100 complete kill
Excerpt: as §1, §2

Wild oat (Avena fatua) = test: Postemergence herbicidal activity with safener; conditions: 25 g/ha postemergence; 0 no injury, 100 complete kill
Excerpt: as §1, §2

COc1cc(OC)n2nc(NS(=O)(=O)c3c(C(F)(F)F)ccnc3OC)nc2n1 [Compound 15, N-(5,7-dimethoxy[1,2,4]triazolo[1,5-a]pyrimidin-2-yl)-2-methoxy-4-(trifluoromethyl)-3-pyridinesulfonamide]
% Injury TRZAS [1]: 47%
Postemergence herbicidal activity SORBI [2]: 98%
Postemergence herbicidal activity POLCO [3]: 98%
Postemergence herbicidal activity CHEAL [4]: 95%
Postemergence herbicidal activity STEME [5]: 98%
Postemergence herbicidal activity ABUTH [6]: 95%
Postemergence herbicidal activity ALOMY [7]: 99%
Postemergence herbicidal activity AVEFA (wild oats (Avena fatua) [8]): 98%
Postemergence herbicidal activity SETFA [9]: 100%
Postemergence herbicidal activity AMARE [10]: 98%
Postemergence herbicidal activity XANST [11]: 90%
Postemergence herbicidal activity VIOTR (viola (Viola tricolor)): 95%
Preemergence herbicidal activity SORBI [12]: 100%
Preemergence herbicidal activity CHEAL [13]: 100%
Preemergence herbicidal activity DIGSA [14]: 98%
Preemergence herbicidal activity IPOHE [15]: 95%
Preemergence herbicidal activity ABUTH [16]: 95%
Preemergence herbicidal activity EPHHL [17]: 98%
Preemergence herbicidal activity ALOMY [18]: 100%
Preemergence herbicidal activity AVEFA (wild oats (Avena fatua) [19]): 98%
Preemergence herbicidal activity SETFA [20]: 100%
Preemergence herbicidal activity AMARE [21]: 70%
Preemergence herbicidal activity XANST [22]: 95%
Preemergence herbicidal activity ECHCG [23]: 98%
% Control 3 Weeks After Application SETVI [24]: 99%
% Control 3 Weeks After Application LOLMU [25]: 99%
% Control 3 Weeks After Application APSEV [26]: 100%
% Control 3 Weeks After Application ALOMY [27]: 99%
% Control 3 Weeks After Application AVEFA (Wild oat (Avena fatua)): 99%
